Test results reported in paper PMC7031696 (Cell chemical biology, 2019).
Like-named read-outs stand apart in the source and are kept apart here.

Tests used:
[1] = system: Plasmodium falciparum 3D7-A10 parasites; assay: Stage specificity assay (8-h exposure of synchronized stages, IC50^8h); format: cell-based; conditions: for IC50: Plasmodium falciparum
[2] = system: 3D7-MR4 trophozoite parasite-infected RBCs; conditions: 10 × IC50^72h; ref Allman et al., 2016; cited from earlier work
[3] = system: asynchronous 3D7-A10 parasite cultures; assay: Standard 72-h exposure asexual blood stage susceptibility assay (IC50^72h); format: cell-based, Plasmodium falciparum; conditions: Plasmodium falciparum, 3D7, 72 h, read-out: Overall (72hr assay) Mean IC50 (IC50^72h)
[4] = system: 3D7-MR4 trophozoite parasite-infected RBCs; assay: Metabolomic profiling (hydrophilic metabolite changes, UHPLC-MS); format: cell-based, Plasmodium falciparum

For `CCN(CC)CCCC(C)Nc1ccnc2cc(Cl)ccc12` (stereo not shown) [Chloroquine, reference compound], the IC50 ([1]; 3D7, read-out: Early rings Mean IC50 (IC50^8h)) was 17.8 nM, the IC50 ([1]; 3D7, read-out: Early trophozoites Mean IC50 (IC50^8h)) was 17.4 nM and the IC50 ([1]; 3D7, read-out: IC50^8h values) was < 300 nM. It also gave an IC50 ([1]; 3D7, read-out: Late rings Mean IC50 (IC50^8h)) of 18.6 nM, an IC50 ([1]; 3D7, read-out: Late trophozoites Mean IC50 (IC50^8h)) of 30.1 nM and an IC50 ([1]; 3D7, read-out: Schizonts Mean IC50 (IC50^8h)) of 60.3 nM. For the same compound, the “increased levels of dAMP, dUTP, cytidine, xanthosine, and N-acetyl-lysine” value [2] was > 2 fold, the “peptide levels (hemoglobin catabolism signature)” value [2] was “more modest decrease in peptide levels” and the IC50 [3] was 5.9 nM.

In the case of `COc1cncc(-c2cncc(N3CCN(c4ccncc4)CC3)n2)c1` [MMV085071], the “Ratio lowest IC50 8hr/IC50 72hr” value ([1]; 3D7-A10) is reported as 0.6, the IC50 ([1]; 3D7, read-out: Early rings Mean IC50 (IC50^8h), 8-h exposure 0–8 hr, 3D7-A10, survival at 60 h) is reported as 893 nM and the IC50 ([1]; 3D7, read-out: Early trophozoites Mean IC50 (IC50^8h), 8-h exposure 16–24 hr, 3D7-A10, survival at 60 h) is reported as 61.1 nM. For the same compound, the IC50 ([1]; 3D7, read-out: Late rings Mean IC50 (IC50^8h), 8-h exposure 8–16 hr, 3D7-A10, survival at 60 h) was 492 nM, the IC50 ([1]; 3D7, read-out: Late trophozoites Mean IC50 (IC50^8h), 8-h exposure 24–32 hr, 3D7-A10, survival at 60 h) was 81.4 nM and the IC50 ([1]; 3D7, read-out: Schizonts Mean IC50 (IC50^8h), 8-h exposure 32–40 hr, 3D7-A10, survival at 60 h) was 254 nM. The “Peak Activity (Table S1)” value ([1]; stage(s) with the lowest IC50^8h) was “Trophs”, the IC50 [3] was 105 nM and the “changes within the set of metabolites detected (low fold change group)” value ([4]; 10 × IC50^72h, 2.5 hr, trophozoites) was “did not induce major changes”. The “Log2(fold changes) 3-phosphoglycerate” value ([4]; metabolite 3-phosphoglycerate, log2 fold change) was -0.3571, the “Log2(fold changes) 4-Pyridoxic acid” value ([4]; metabolite 4-Pyridoxic acid, log2 fold change) was 0.1725 and the “Log2(fold changes) 4-aminobutyrate” value ([4]; metabolite 4-aminobutyrate, log2 fold change) was -0.2370. For the same compound, the “Log2(fold changes) 4-phosphopantetheine” value ([4]; metabolite 4-phosphopantetheine, log2 fold change) was 0.0000, the “Log2(fold changes) 4-phosphopantothenate” value ([4]; metabolite 4-phosphopantothenate, log2 fold change) was -0.0279 and the “Log2(fold changes) 5-aminopentanoic acid” value ([4]; metabolite 5-aminopentanoic acid, log2 fold change) was 0.0000. For the same compound, the “Log2(fold changes) 5-methyl-THF” value ([4]; metabolite 5-methyl-THF, log2 fold change) was 0.0000, the “Log2(fold changes) 5-phosphoribosyl-1-pyrophosphate” value ([4]; metabolite 5-phosphoribosyl-1-pyrophosphate, log2 fold change) was 0.0000 and the “Log2(fold changes) 6-phospho-D-gluconate” value ([4]; metabolite 6-phospho-D-gluconate, log2 fold change) was -0.0766. The “Log2(fold change) HVDD” value ([4]; metabolite HVDD) was 1.5471, the “Log2(fold change) Hydroxyisocaproic acid” value ([4]; metabolite Hydroxyisocaproic acid) was 0.0000 and the “Log2(fold change) IDP” value ([4]; metabolite IDP) was 0.0000. For the same compound, the “Log2(fold change) IMP” value ([4]; metabolite IMP) was -0.0355, the “Log2(fold change) Inositol” value ([4]; metabolite Inositol) was 0.0000 and the “Log2(fold change) Isopentyl-PP” value ([4]; metabolite Isopentyl-PP) was 0.0000. The “Log2(fold change) L-arginino-succinate” value ([4]; metabolite L-arginino-succinate) was 0.7586, the “Log2(fold change) LD” value ([4]; metabolite LD) was 1.2308 and the “Log2(fold change) Myristoyl/tetradecanoyl-CoA” value ([4]; metabolite Myristoyl/tetradecanoyl-CoA) was 0.0000. The “Log2(fold change) N-Acetyl-L-alanine” value ([4]; metabolite N-Acetyl-L-alanine) was 0.1191, the “Log2(fold change) N-acetyl-L-ornithine” value ([4]; metabolite N-acetyl-L-ornithine) was 1.0380 and the “Log2(fold change) N-acetyl-glucosamine-1/6-phosphate” value ([4]; metabolite N-acetyl-glucosamine-1/6-phosphate) was 0.0154. The “Log2(fold change) N-acetyl-glutamate” value ([4]; metabolite N-acetyl-glutamate) was 0.1593, the “Log2(fold change) N-acetyl-glutamine” value ([4]; metabolite N-acetyl-glutamine) was -0.2990 and the “Log2(fold change) N-carbamoyl-L-aspartate” value ([4]; metabolite N-carbamoyl-L-aspartate) was 0.1424. For the same compound, the “Log2(fold change) NAD+” value ([4]; metabolite NAD+) was 0.0189, the “Log2(fold change) NADH” value ([4]; metabolite NADH) was 0.0000 and the “Log2(fold change) NADP+” value ([4]; metabolite NADP+) was 0.1777. For the same compound, the “Log2(fold change) NADPH” value ([4]; metabolite NADPH) was 0.0000, the “Log2(fold change) O-acetyl-L-serine” value ([4]; metabolite O-acetyl-L-serine) was 0.0000 and the “Log2(fold change) Octoluse 8/1P” value ([4]; metabolite Octoluse 8/1P) was 0.0000. The “Log2(fold change) Octoluse Bisphosphate” value ([4]; metabolite Octoluse Bisphosphate) was 0.0955, the “Log2(fold change) PD” value ([4]; metabolite PD) was 0.1245 and the “Log2(fold change) PE” value ([4]; metabolite PE) was 0.4481. For the same compound, the “Log2(fold change) PEE” value ([4]; metabolite PEE) was 1.1300, the “Log2(fold change) PEEK” value ([4]; metabolite PEEK) was 1.3266 and the “Log2(fold change) PVNF” value ([4]; metabolite PVNF) was 0.3702. The “Log2(fold change) Pyroglutamic acid” value ([4]; metabolite Pyroglutamic acid) was 0.0000, the “Log2(fold change) Pyrophosphate” value ([4]; metabolite Pyrophosphate) was 0.0000 and the “Log2(fold change) Ribose-5-phosphate” value ([4]; metabolite Ribose-5-phosphate) was 0.0000. The “Log2(fold change) S-adenosyl-L-homocysteine” value ([4]; metabolite S-adenosyl-L-homocysteine) was -0.0131, the “Log2(fold change) S-adenosyl-L-methioninamine” value ([4]; metabolite S-adenosyl-L-methioninamine) was 0.0000 and the “Log2(fold change) S-adenosyl-L-methionine” value ([4]; metabolite S-adenosyl-L-methionine) was 0.0000. The “Log2(fold change) S-methyl-5'-thioadenosine” value ([4]; metabolite S-methyl-5'-thioadenosine) was 0.0000, the “Log2(fold change) SD” value ([4]; metabolite SD) was 0.5330 and the “Log2(fold change) SDL” value ([4]; metabolite SDL) was 0.1100. For the same compound, the “Log2(fold change) SID” value ([4]; metabolite SID) was -0.3348, the “Log2(fold change) Sedoheptulose bisphosphate” value ([4]; metabolite Sedoheptulose bisphosphate) was 0.0203 and the “Log2(fold change) Thiamine pyrophosphate” value ([4]; metabolite Thiamine pyrophosphate) was 0.0000. For the same compound, the “Log2(fold changes) UDP-D-glucose” value ([4]; metabolite UDP-D-glucose, log2 fold change) was 0.0450, the “Log2(fold changes) UDP-D-glucuronate” value ([4]; metabolite UDP-D-glucuronate, log2 fold change) was 0.0222 and the “Log2(fold changes) UDP-N-acetyl-glucosamine” value ([4]; metabolite UDP-N-acetyl-glucosamine, log2 fold change) was -0.1104. The “Log2(fold changes) UDP” value ([4]; metabolite UDP, log2 fold change) was 0.8151, the “Log2(fold changes) UMP” value ([4]; metabolite UMP, log2 fold change) was -0.2015 and the “Log2(fold changes) UTP” value ([4]; metabolite UTP, log2 fold change) was -0.1278. The “Log2(fold change) hydroxyphenylpyruvate” value ([4]; metabolite hydroxyphenylpyruvate) was 0.0000, the “Log2(fold change) hydroxyproline/Aminolevulinate” value ([4]; metabolite hydroxyproline/Aminolevulinate) was -0.0385 and the “Log2(fold change) hypoxanthine” value ([4]; metabolite hypoxanthine) was 0.0000. For the same compound, the “Log2(fold change) indole” value ([4]; metabolite indole) was 0.0000, the “Log2(fold change) inosine” value ([4]; metabolite inosine) was -0.0754 and the “Log2(fold change) isoleucine” value ([4]; metabolite isoleucine) was -0.1140. The “Log2(fold change) lactate” value ([4]; metabolite lactate) was 0.0000, the “Log2(fold change) leucine” value ([4]; metabolite leucine) was -0.0775 and the “Log2(fold change) lysine” value ([4]; metabolite lysine) was 0.0000. For the same compound, the “Log2(fold change) malate” value ([4]; metabolite malate) was -0.0512, the “Log2(fold change) maleic acid” value ([4]; metabolite maleic acid) was -0.0636 and the “Log2(fold change) methionine” value ([4]; metabolite methionine) was 0.2308. The “Log2(fold change) myo-inositol” value ([4]; metabolite myo-inositol) was 0.0000, the “Log2(fold change) nicotinamide mononucleotide” value ([4]; metabolite nicotinamide mononucleotide) was 0.0000 and the “Log2(fold change) nicotinate” value ([4]; metabolite nicotinate) was 0.2062. For the same compound, the “Log2(fold change) ornithine” value ([4]; metabolite ornithine) was 0.0000, the “Log2(fold change) orotate” value ([4]; metabolite orotate) was 0.3476 and the “Log2(fold change) orotidine-5'-phosphate” value ([4]; metabolite orotidine-5'-phosphate) was 0.4326. For the same compound, the “Log2(fold change) oxaloacetate” value ([4]; metabolite oxaloacetate) was 0.0000, the “Log2(fold change) p-aminobenzoate” value ([4]; metabolite p-aminobenzoate) was 0.0000 and the “Log2(fold change) p-hydroxybenzoate” value ([4]; metabolite p-hydroxybenzoate) was 0.0000. The “Log2(fold change) pantothenate” value ([4]; metabolite pantothenate) was -0.2410, the “Log2(fold change) phenylalanine” value ([4]; metabolite phenylalanine) was -0.1015 and the “Log2(fold change) phenylpyruvate” value ([4]; metabolite phenylpyruvate) was 0.0000. For the same compound, the “Log2(fold change) phosphoenolpyruvate” value ([4]; metabolite phosphoenolpyruvate) was -0.3652, the “Log2(fold change) prephenate” value ([4]; metabolite prephenate) was 0.0000 and the “Log2(fold change) proline” value ([4]; metabolite proline) was 0.0444. The “Log2(fold change) pyridoxine” value ([4]; metabolite pyridoxine) was 0.0000, the “Log2(fold change) pyruvate” value ([4]; metabolite pyruvate) was -0.4378 and the “Log2(fold change) riboflavin” value ([4]; metabolite riboflavin) was -0.6618. The “Log2(fold change) ribose” value ([4]; metabolite ribose) was 0.0000, the “Log2(fold change) ribose-phosphate” value ([4]; metabolite ribose-phosphate) was -0.0725 and the “Log2(fold change) ribulose-5-phosphate” value ([4]; metabolite ribulose-5-phosphate) was -0.2555. The “Log2(fold change) serine” value ([4]; metabolite serine) was 0.5038, the “Log2(fold change) sn-glycerol-3-phosphate” value ([4]; metabolite sn-glycerol-3-phosphate) was -0.1967 and the “Log2(fold change) succinate/Methylmalonic acid” value ([4]; metabolite succinate/Methylmalonic acid) was -0.0635. For the same compound, the “Log2(fold change) succinyl-CoA/methylmalonyl-CoA” value ([4]; metabolite succinyl-CoA/methylmalonyl-CoA) was 0.0000, the “Log2(fold change) taurine” value ([4]; metabolite taurine) was 0.0000 and the “Log2(fold change) thiamine” value ([4]; metabolite thiamine) was 0.0498. For the same compound, the “Log2(fold change) threonine/homoserine” value ([4]; metabolite threonine/homoserine) was 0.1750, the “Log2(fold change) thymidine” value ([4]; metabolite thymidine) was 0.0000 and the “Log2(fold changes) thymine” value ([4]; metabolite thymine, log2 fold change) was 0.0000. For the same compound, the “Log2(fold changes) trehalose-6-Phosphate” value ([4]; metabolite trehalose-6-Phosphate, log2 fold change) was 0.0000, the “Log2(fold changes) tryptophan” value ([4]; metabolite tryptophan, log2 fold change) was -0.0120 and the “Log2(fold changes) tyrosine” value ([4]; metabolite tyrosine, log2 fold change) was 0.0532. The “Log2(fold changes) uridine” value ([4]; metabolite uridine, log2 fold change) was 0.0000.
